The test concerns Virus. As to the kind of experiment: Design of Experiment study of viral inactivation process variables. The class given is cell-based. The settings on record: 30 mM caprylate, albumin 5%, pH 4.4, 40° C., 120 min.

As to `CCCCCCCC(=O)O` [caprylate, octanoic acid], the “predicted LRV (equivalent of 100%)” value is 2.16 and the “predicted LRV on the 0 to 100 scale (maximized)” value is on record as 100%.
